For test [1], the system named is total MMP-9 (human active and pro-MMP-9). The test is described as follows: Total MMP-9 ELISA on plasma of patients, Phase IIa clinical trial. As to conditions: for MMP-9 level in plasma, D27C3: day 27 of cycle 3. In kind it is in vivo. From the text: The clinical trial is a multiple ascending dose, open-label, Phase IIa study evaluating the safety and tolerability of PCK3145 derivative; SEQ ID NO.:7 administered intravenously in patients with metastatic hormone resistant prostatic cancer (HRPC). The study is not randomized. Patients have been enrolled sequentially and chronologically.
The drug was therefore administered to patients characterized as having metastatic adenocarcinoma of the prostate, stage IV prostatic cancer and as having a metastatic hormone resistant prostatic cancer. Four patients per cohort and 4 ascending doses were evaluated. The ascending doses were 5, 20, 40 and 80 mg/m^2. The dose escalation decision has been based on dose-limiting toxicity (DLT).
The 33-day cycle of treatment consisted of a PCK3145 derivative; SEQ ID NO.:7 administration three times per week (day 1, 3 and 5) for 26 days, followed by a 7 day post-treatment observation period. The maximum tolerated dose (MTD) is the dose level below the one inducing grade 3 or 4 drug related toxicity (DLT) in two patients from a cohort of a minimum of 4 patients. Only DLT's observed during the first cycle have been used for the dose escalation decision.
The treatment period consisted of intravenous administration of the PCK3145 derivative (SEQ ID NO.:5 derivative) i.e., SEQ ID NO.:7, three times per week (day 1, 3 and 5) for 26 consecutive days during which patients were closely monitored and undergone regular examination. After a week of treatment break and in the absence of toxicity and disease progression, patients optionally received additional treatment cycles.
Biological samples were drawn during different time points of the study for the purpose of safety monitoring and have been assayed for MMP-9 levels. Plasma samples were placed on dry ice and stored frozen (approximately −70° C.) and subsequently analyzed for total MMP-9 levels.
MMP-9 assay methodology. An Elisa assay measuring total MMP-9, i.e., human active and pro-MMP-9, (Quantikine®), Cat. No.: DMP900, R&D Systems Inc.) was performed on plasma-heparin samples. Plasma samples have been collected from individuals at day 1 (before treatment) and at day 27 of each treatment cycle.
The Quantikine® MMP-9 immunoassay is a solid phase ELISA designed to measure total MMP-9 (92 kDa pro- and 82 kDa active forms) in serum, plasma, saliva, urine and cell culture supernatants. It is calibrated with CHO-cells expressed recombinant human pro-MMP-9 and the antibodies were raised against the recombinant factor. Both antibodies also recognize recombinant human active MMP-9.
The assay employs the quantitative sandwich enzyme immunoassay technique. A monoclonal antibody specific for MMP-9 has been pre-coated onto a microplate. Standards and samples are added into the wells, and MMP-9 is thus bound by the immobilized antibody. After washing away unbound substances, an enzyme-linked polyclonal antibody specific for MMP-9 is added to the wells. Following a wash to remove unbound antibody-enzyme reagent, a substrate solution is added to the wells and color develops in proportion to the amount of total MMP-9 (pro and/or active) bound in the initial step. The color development is stopped and the intensity of the color is measured.
On the technique in general: ELISA stands for enzyme-linked immunosorbent assay.

The test system of the next test is ERK. The test is described as follows: Induced ERK phosphorylation in HUVEC (Western blot). The format is cell-based, Human. The method, then: Cell culture. Human umbilical vein endothelial cells (HUVEC) and pulmonary aortic smooth muscle cells (PASMC) were obtained from Clonetics and maintained in endothelial cell basal medium-2 (EBM-2; Clonetics) and smooth muscle medium-2 (SmGM-2; Clonetics), respectively. Cells were cultured at 37° C. under a humidified atmosphere containing 5% CO2. For experimental purposes, cells were plated in 8 100-mm plastic dishes at 5,000 cells/cm^2 and were grown to confluence before overnight serum starvation. Cells were treated with vehicle or with a PCK3145 derivative diluted in 0.1 N NaOH, and stimulated with 50-100 ng/ml VEGF or PDGF, with 10 ng/ml of bFGF (basic fibroblast growth factor) or with 1 μM S1P (sphingosine-1-phosphate).
Immunoprecipitation and immunoblotting procedures. After treatment, cells were washed once with phosphate-buffered saline (PBS) containing 1 mM sodium orthovanadate and were incubated in the same medium for 1 h at 4° C. The cells were solubilized on ice in lysis buffer (150 mM NaCl, 10 mM Tris-HCl, pH 7.4, 1 mM EDTA, 1 mM EGTA, 0.5% Nonidet P-40, 1% Triton X-100) containing 1 mM sodium orthovanadate. The cells were then scraped from the culture dishes and the resulting lysates were clarified by centrifugation at 10,000 g for 10 min; Protein concentrations were determined using the micro bicinchoninic acid method (Pierce). For immunoprecipitation studies, lysates were clarified by a 1 h incubation at 4° C. with a mixture of Protein A/Protein G Sepharose beads. After removal of the Sepharose beads by low-speed centrifugation, identical amounts of protein (200 μg) from each sample were transferred to fresh tubes and incubated in lysis buffer overnight at 4° C. in the presence of 2 μg/ml of specific antibodies. Immunocomplexes were collected by incubating the mixture with 25 μl (50% suspension) of Protein A- (rabbit primary antibody) or Protein G- (mouse primary antibody) Sepharose beads, for 2 h. Nonspecifically-bound material was removed by washing the beads three times in 1 ml of lysis buffer containing 1 mM sodium orthovanadate, and bound material was solubilized in 25 μl of two-fold concentrated Laemmli sample buffer (125 mM Tris-HCl (pH 6.8), 20% glycerol, 4% SDS, 10% β-mercaptoethanol, and 0.00125% bromphenol blue), boiled 5 min, and resolved by SDS-PAGE. The proteins were transferred onto polyvinylidene difluoride (PVDF) membranes, blocked 1 h at room temperature with Tris-buffered saline/Tween 20 (147 mM NaCl, 20 mM Tris/HCl, pH 7.5, and 0.1% Tween 20) containing 2% bovine serum albumin and incubated overnight at 4° C. with primary antibody. […] The immunoreactive bands were quantified by scanning densitometry (Molecular Dynamics).
VEGF is a strong activator of ERKs (Extracellular-signal-Regulated protein Kinases) 1 and 2 via VEGF receptor 2. In order to test the ability of the PCK3145 derivative in potentially antagonizing VEGF-mediated ERK phosphorylation, serum-starved quiescent endothelial cells (HUVEC) were incubated with vehicle (phosphate-buffered saline (PBS) pH 7.4) or PCK3145 derivative (300 μg/ml) for 24 h and then stimulated with VEGF, bFGF (basic Fibroblast Growth Factor) or S1P (sphingosine-1-phosphate). Cells were washed with PBS containing NaF/Na3VO4 and incubated in the same medium buffer for 1 h at 4° C. The cells were scraped from the culture dishes and the resulting lysates clarified by centrifugation. Western blotting and immunodetection using anti-phosphoERK and anti-ERK antibodies was then performed.
Background: A western blot detects proteins with antibodies after separation by electrophoresis.

Where “and” joins values, the source holds several entries; their conditions need not be identical. Equal values may be shown once. Where no end group is shown, it is not given here.

For the sequence “EWQTDNCETCTCYET (cysteine pairing not given here) [PCK3145 derivative, PCK3145 derivative with acetylaminomethyl groups on the three cysteines]”, the “change in MMP-9 levels compared to baseline” value in test [1] (elevated MMP-9 category (patients A, B, C, D), after one cycle) is reported as “significant decrease”; in test [1] (normal value MMP-9 category (patients E, F, G, H, I), after one cycle) it was “no significant decrease”; in test [1] (patient E, after 3 cycles), “no MMP-9 decrease”; in test [1] (patients E and G, after 2 cycles) it was “no decrease”. Moreover, the “MMP-9 level in plasma, D27C2” value in test [1] (elevated baseline MMP-9 patients, day 27 of cycle 2) was 55.6 µg/L and 37.7 µg/L. Besides, the “MMP-9 level in plasma, D27C3” value in test [1] (elevated baseline MMP-9 patients) was determined as 54.5 µg/L; in test [1] (normal baseline MMP-9 patients), 101.8 µg/L. In test [1] (elevated baseline MMP-9 patients, day 27 of cycle 4), the “MMP-9 level in plasma, D27C4” value amounted to 39.4 µg/L. In addition, the “decrease in MMP-9 levels compared to baseline” value in test [1] (patient A, after cycle 1) is on record as “up to 89%”; in test [1] (patient B, after cycle 1), 41%; in test [1] (patient C, cycle 1), 90%; in test [1] (patient D, cycle 1), 34%. For the same sequence, the “reduction of baseline level of MMP-9” value in test [1] (patient B, treatment cycle 2) came out at 64%; in test [1] (patient B, treatment cycle 3), 65%; in test [1] (patient B, treatment cycle 4), 75%. For the same sequence, in test [1] (patient C, cycle 2), the “reduction in MMP-9 levels” value amounted to 76%. Further, the “extent of ERK phosphorylation by VEGF, dose-response” value in the test with ERK is recorded as “gradually inhibit”. Moreover, the “ERK phosphorylation induced by S1P” value in the test with ERK (300 μg/ml, 24 h) is on record as “not that induced by bFGF or S1P”. For the same sequence, in the test on ERK (300 μg/ml, 24 h), the “ERK phosphorylation induced by VEGF” value is given as “specific inhibitory effect”. Also, the “total amount of ERK” value with ERK (300 μg/ml, 24 h) is listed as “unaffected”. Besides, the “VEGF-induced ERK phosphorylation, time-course” value in the test with ERK (3 and 24 hrs) is reported as “necessity of a long term action”.

For the origin of these results see patent publication US20080200393A1, “Method and Composition For Treating Angiogenesis and For Preventing Cancer Progression and Metastasis Comprising a Prostate Secretory Protein (Psp94) Family Member” (Ambrillia Biopharma Inc., priority 2004, published 2008).
